Results as given in publication PMC5706900, “Distinct mobilization of leukocytes and hematopoietic stem cells by CXCR4 peptide antagonist LY2510924 and monoclonal antibody LY2624587” (Oncotarget, 2017).
Positions of bridges follow the written chain, without caps; N, C: chain ends. Non-standard residues stand in square brackets, D forms with d. Residues, ends and D or L forms follow the SMILES beside them. 2Nal = N[C@@H](Cc1ccc2ccccc2c1)C(=O)O; Lys(iPr) = CC(C)NCCCC[C@H](N)C(=O)O

What was measured:
[1] = test system: hepatic carcinoma models; conditions: ref [30]; cited from earlier work
Description: (§1) Due to the critical role of SDF-1/CXCR4 interaction in immune cell retention and mobilization, CXCR4 inhibition may lead to T-cell infiltration and redistribution in tumor microenvironments.

[2] = test system: ovarian cancer models; conditions: ref [32]; cited from earlier work
Description: as §1

[3] = test system: pancreatic cancer; conditions: mice with pancreatic cancer; ref [7]; cited from earlier work
Description: as §1

[4] = test system: leukocytes and HSCs; conditions: ref [12], [20], [24]; cited from earlier work
Description: In addition to tumor microenvironments, SDF-1 is constitutively expressed at high levels in bone marrow and is an efficient chemotactic factor for immune cells including T-cells, B-cells, and monocytes. […] There are two major mechanisms involved in this function: down-regulation of cell surface CXCR4 by internalization or proteolysis, and antagonism via direct blockade of SDF-1/CXCR4 interaction.

[5] = test system: WBC count; conditions: ref [43], cited from earlier work
[6] = ref [43]; cited from earlier work
[7] = test system: hematologic malignancies; conditions: ref [11], [39]; cited from earlier work
Description: (§2) These distinct in vitro properties may be related to the differential mobilization of WBCs and HSCs in vivo, but the mechanism is not yet understood and these differences cannot fully explain why LY2624587 antibody induced only minimal changes in WBCs and HSCs in monkeys and humans. […] Weak immune cell mobilization by LY2624587 antibody may be a class phenomenon of mAb agents. Ano ...

[8] = test system: patients with chronic lymphocytic leukemia, normal lymphocytes; conditions: ref [40]; cited from earlier work
Description: as §2

[9] = test system: patients with multiple myeloma, peripheral leukocytes; conditions: ref [41]; cited from earlier work
Description: as §2

[10] = biological target: T1, human CXCR4 (Homo sapiens, UniProt P61073); assay: SDF-1/CXCR4 binding assay, [125I]-SDF-1α, human leukemia CCRF-CEM cells
T1 construct: human leukemia CCRF-CEM cells that express endogenous CXCR4; endogenous in cells; host or cells: CCRF-CEM human leukemia cells
Protocol: (§3) Preclinical characterization of both agents was previously described. Interaction of SDF-1/CXCR4 was assayed in human leukemia CCRF-CEM cells expressing high levels of human CXCR4, MDA-MB-435 cells stably transfected with monkey CXCR4, and mouse 2PK-3 lymphoma cells expressing high levels of mouse CXCR4.
(§4) Figure 1 LY2510924 peptide and LY2624587 antibody inhibition of SDF-1/CXCR4 binding in human, monkey, and mouse cells LY2510924 (peptide antagonist) inhibits binding in (A) human, (B) monkey, and (C) mouse cells. LY2624587 (CXCR4 mAb) inhibits binding in (D) human, (E) monkey, and (F) mouse cells. Human cells = leukemia CCRF-CEM cells with high-level expression of human CXCR4, monkey cells = MDA-MB-435 cells stably transfected with monkey CXCR4, and mouse cells = 2PK-3 lymphoma cells with high-level expression of mouse CXCR4. Ki = inhibitor constant.
(§5) The SDF-1/CXCR4 binding assay used human leukemia CCRF-CEM cells that express endogenous CXCR4 and [125I]-labeled recombinant human SDF-1α (PeproTech EC Ltd., London, UK) as previously described. The same assay was conducted for breast cancer MDA-MB-435 cells transfected with monkey CXCR4 and mouse lymphoma 2PK-3 cells that express endogenous mouse CXCR4. Plates were counted in a 1450 Microbeta Liquid Scintillation and Luminescence Counter (Wallac) in SPA mode.

[11] = biological target: T2, monkey CXCR4 (Macaca fascicularis, UniProt Q28474); assay: SDF-1/CXCR4 binding assay, MDA-MB-435 cells transfected with monkey CXCR4; conditions: MDA-MB-435 cells stably transfected with monkey CXCR4; SPA mode; read-out: IC50, inhibition of SDF-1 binding
T2 construct: expressed in transfected cells; host or cells: MDA-MB-435 cells
Protocol: as §3, §4, §5

[12] = biological target: T3, mouse CXCR4 (Mus musculus, UniProt P70658); assay: SDF-1/CXCR4 binding assay, mouse lymphoma 2PK-3 cells
T3 construct: mouse lymphoma 2PK-3 cells that express endogenous mouse CXCR4; endogenous in cells; host or cells: 2PK-3 mouse lymphoma cells
Protocol: as §3, §4, §5

[13] = 1- to 30-mg/day, patients with advanced cancer; ref [9]; cited from earlier work
Description: We developed LY2624587, a fully humanized CXCR4 mAb that is among the first-in-class anti-CXCR4 mAbs developed, for the treatment of patients with cancer. […] A role for LY2624587 antibody in mobilizing HSCs and WBCs has not been previously reported. We also developed LY25 ...

T3 sequence (P70658 whole entry): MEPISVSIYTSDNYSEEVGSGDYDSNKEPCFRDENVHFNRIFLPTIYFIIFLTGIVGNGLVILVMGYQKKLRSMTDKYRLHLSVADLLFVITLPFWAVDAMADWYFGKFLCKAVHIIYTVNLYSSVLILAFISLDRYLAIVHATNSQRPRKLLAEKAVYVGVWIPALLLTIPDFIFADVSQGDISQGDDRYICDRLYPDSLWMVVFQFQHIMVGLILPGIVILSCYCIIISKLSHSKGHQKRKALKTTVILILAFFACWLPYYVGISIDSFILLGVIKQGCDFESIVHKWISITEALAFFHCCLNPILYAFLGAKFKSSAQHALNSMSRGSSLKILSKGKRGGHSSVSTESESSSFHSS
T1 sequence (P61073 whole entry): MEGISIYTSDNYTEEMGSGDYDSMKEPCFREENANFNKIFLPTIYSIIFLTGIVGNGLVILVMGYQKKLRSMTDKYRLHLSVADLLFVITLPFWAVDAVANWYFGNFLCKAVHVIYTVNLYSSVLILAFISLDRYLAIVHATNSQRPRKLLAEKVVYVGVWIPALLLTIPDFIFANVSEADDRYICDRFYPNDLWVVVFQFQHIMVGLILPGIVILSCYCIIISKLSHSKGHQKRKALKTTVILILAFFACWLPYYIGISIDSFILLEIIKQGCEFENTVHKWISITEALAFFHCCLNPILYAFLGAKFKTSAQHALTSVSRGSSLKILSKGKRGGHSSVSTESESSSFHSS
T2 sequence (Q28474 whole entry): as the sequence (P61073 whole entry) above, with M24I, N35H, K38R, R146K, N176S counted along it

c1cc(CN2CCCNCCNCCCNCC2)ccc1CN1CCCNCCNCCCNCC1 [AMD3100]
combination with anti–PD-1 [1]: augmented anti–PD-1 combination therapy efficacy
effect on intra-tumor regulatory T-cells [2]: selective reduction of intra-tumor regulatory T-cells
effect on tumor apoptosis [2]: increased tumor apoptosis
T-cell accumulation near tumors [3]: rapid T-cell accumulation near tumors
combination with anti–PD-L1 mAb, tumor cell elimination [3]: synergistic with an anti–PD-L1 mAb to eliminate tumor cells
mobilization of WBCs including neutrophils and HSCs [4]: mobilize both white blood cells (WBCs) including neutrophils and HSCs
duration of single dose effect [5]: appeared to last only a few hours
WBC count at 24 hours ([5]; single dose, 24 hours): reduced to near baseline level at 24 hours
safety on chronic dosing schedule [6]: poses significant safety concerns due to compound-associated toxicity

BMS-936564/MDX-1338: CXCR4-specific mAb in clinical development
antitumor and pro-apoptotic functionality [7]: antitumor and pro-apoptotic functionality
increase in absolute number of normal lymphocytes [8]: no evidence of increase
duration of leukocyte increase [9]: transient
increase in peripheral leukocytes (median) [9]: 2 fold

CC(C)NCCCC[C@H](NC(=O)[C@H]1CCC(=O)N[C@@H](Cc2ccccc2)C(=O)N[C@@H](Cc2ccc(O)cc2)C(=O)N[C@@H](CCCCNC(C)C)C(=O)N[C@H](CCCNC(=N)N)C(=O)N[C@@H](Cc2ccc3ccccc3c2)C(=O)NCC(=O)N1)C(N)=O [LY2510924] (FY[Lys(iPr)][dR][2Nal]G[dE][Lys(iPr)]-NH2; lactam N-7)
Ki [10]: 0.0495 nM
IC50 ([10]; human leukemia CCRF-CEM cells, [125I]-labeled human SDF-1α, SPA mode, read-out: IC50, inhibition of SDF-1 binding): 0.0797 nM
IC50 [11]: 0.097 nM
IC50 difference, mouse versus human cells ([12]; mouse 2PK-3 vs human CCRF-CEM): 35 fold
IC50 difference, mouse versus monkey cells ([12]; mouse 2PK-3 vs monkey CXCR4 MDA-MB-435): 29 fold
IC50 ([12]; mouse lymphoma 2PK-3 cells, SPA mode, read-out: IC50, inhibition of SDF-1 binding): 2.83 nM
pharmacokinetic and safety profiles [13]: favorable pharmacokinetic and safety profiles
